Assay results from ChEMBL document CHEMBL3352438, “Synthesis, characterization, molecular docking and anti-tubercular activity of Plumbagin-Isoniazid Analog and its β-cyclodextrin conjugate” (2014).
≈ marks a conversion by molar mass, not a printed value.

Tests used:
Format in all cases: functional
Details in all cases: ATCC 27294, 120 h
[1] = tested on: Mycobacterium tuberculosis; test: Antitubercular activity against Mycobacterium tuberculosis ATCC 27294 in low iron condition after 5 days by Alamar blue assay
[2] = tested on: Mycobacterium tuberculosis; test: Antitubercular activity against Mycobacterium tuberculosis ATCC 27294 in 7H9 medium after 5 days by Alamar blue assay
[3] = tested on: Mycobacterium tuberculosis; test: Antitubercular activity against Mycobacterium tuberculosis ATCC 27294 in high iron condition after 5 days by Alamar blue assay

NNC(=O)c1ccncc1 [ISONIAZID] gave an MIC [1] of 32 µg/mL (≈ 233 µM), an MIC [2] of 0.25 µg/mL (≈ 1.82 µM) and an MIC [3] of 0.125 µg/mL (≈ 0.911 µM).
Work on CC1=C/C(=N\NC(=O)c2ccncc2)c2c(O)cccc2C1=O yielded an MIC [1] of 2 µg/mL (≈ 6.51 µM), an MIC [2] of 8 µg/mL (≈ 26 µM) and an MIC [3] of 0.5 µg/mL (≈ 1.63 µM).
CC1=CC(=O)c2c(O)cccc2C1=O [PLUMBAGIN] showed an MIC [1] of 128 µg/mL (≈ 680 µM), an MIC [2] of 32 µg/mL (≈ 170 µM) and an MIC [3] of 4 µg/mL (≈ 21.3 µM).
